Results reported in patent publication US10995359B2, “Method for determining drug-sensitive human cell lines by analysis method in which measurement of activity of two types of protein kinase is used” (NITTO BOSEKI CO., LTD., priority 2015, dated 2021).

Assays:
Assay in all cases: Drug sensitivity assay (cell growth test), sulforhodamine B
Format in all cases: cell-based
[1] = test system: MDA-MB-453 (LAR) cells; details: Homo sapiens, 72 hours, read-out: inhibition rate (%) by wortmannin, classification by grid analysis
Procedure: (§1) Cultured cells were treated with a MEK inhibitor and a PI3K inhibitor in various concentrations, and cell lines sensitive to MEK and PI3K were classified by calculating a cell growth inhibition rate. The culture method and analysis method are as follows.
(§2) Thirteen types of cells used in the present study, HCC38 (BL1), MDA-MB-231 (MSL), DU4475 (IM), HCC1187 (IM), HCC1143 (BL1), HCC1395 (LAR), HCC1937 (BL1), MDA-MB-453 (LAR), HCC70 (BL2), HS578T (MSL), MDA-MB-157 (MSL) and MDA-MB-468 (BL1), were obtained from American type culture collection (ATCC), and SUM185PE (LAR) was obtained from ASTERAND BIOSCIENCE. All the cells belong to triple negative breast cancer (TNBC), and it is known which of six types (BL1, BL2, M, MSL, IM and LAR) these belong to by an existing classification method.
(§3) All the cells were cultured in a medium designated from a source of supply, and 2 mM L-glutamine and 10% fetal bovine serum (FBS) were supplemented.
(§4) Each type of cells was seeded in a 96 well titer plate at 1×10^4 cells/well, and trametinib, an MEK inhibitor (Medchem Express; 0.08, 0.16, 0.31, 0.63, 1.25, 2.5, 5, 10 and 20 μM), and wortmannin, a PI3K inhibitor (Wako Pure Chemical Industries, Ltd.; 0.08, 0.16, 0.31, 0.63, 1.25, 2.5, 5, 10 and 20 μM) were dissolved in Dimethyl Sulfoxide [DMSO] (Wako Pure Chemical Industries, Ltd.) in various concentrations and treated. In addition, the effect on cell growth was examined at 72 hours after the inhibitor by sulforhodamine B assay (manufactured by SIGMA-ALDRICH), and 50 μL of sulforhodamine B solution was added to each well and cells were left at room temperature for an hour for staining. The staining degree of metabolically survival cells was examined by monitoring absorbance at a wavelength of 565 nm using a microtiter plate. The absorbance of cells which were not treated with trametinib and wortmannin (treated with DMSO) was used as a control and defined as 100% to calculate a cell growth inhibition rate.
(§5) The cell lines were classified into 4 types, cell lines sensitive to wortmannin (hereinafter, PA), cell lines sensitive to trametinib (hereinafter, MA), cell lines resistant to wortmannin and trametinib (hereinafter, R), and others (hereinafter, S). In the classification, first the inhibition rate of each drug was calculated in a concentration of 1 μM, and the inhibition rate (%) by trametinib and the inhibition rate (%) by wortmannin were plotted on the X axis and Y axis respectively on a graph.
as §5, with “100 nM,” for “1 μM,”
as §5, with “10” for “1”, “graph. Using a 50% growth inhibition rate as an index of the inhibitive effect of a drug, cells were classified into 4 types by grid analysis.” for “graph.”

[2] = test system: HCC1187 (IM) cells; details: Homo sapiens, 72 hours, read-out: inhibition rate (%) by wortmannin, classification by grid analysis
Procedure: as §1, §2, §3, §4, §5
as §5, with “100 nM,” for “1 μM,”
as §5, with “10” for “1”, “graph. Using a 50% growth inhibition rate as an index of the inhibitive effect of a drug, cells were classified into 4 types by grid analysis.” for “graph.”

[3] = test system: MDA-MB-468 (BL1) cells; details: Homo sapiens, 72 hours, read-out: inhibition rate (%) by wortmannin, classification by grid analysis
Procedure: as §1, §2, §3, §4, §5
as §5, with “100 nM,” for “1 μM,”
as §5, with “10” for “1”, “graph. Using a 50% growth inhibition rate as an index of the inhibitive effect of a drug, cells were classified into 4 types by grid analysis.” for “graph.”

[4] = test system: HCC1395 (LAR) cells; details: Homo sapiens, 72 hours, read-out: inhibition rate (%) by wortmannin, classification by grid analysis
Procedure: as §1, §2, §3, §4, §5
as §5, with “100 nM,” for “1 μM,”
as §5, with “10” for “1”, “graph. Using a 50% growth inhibition rate as an index of the inhibitive effect of a drug, cells were classified into 4 types by grid analysis.” for “graph.”

[5] = test system: HCC38 (BL1) cells; details: Homo sapiens, 72 hours, read-out: inhibition rate (%) by wortmannin, classification by grid analysis
Procedure: as §1, §2, §3, §4, §5
as §5, with “100 nM,” for “1 μM,”
as §5, with “10” for “1”, “graph. Using a 50% growth inhibition rate as an index of the inhibitive effect of a drug, cells were classified into 4 types by grid analysis.” for “graph.”

[6] = test system: HCC70 (BL2) cells; details: Homo sapiens, 72 hours, read-out: inhibition rate (%) by wortmannin, classification by grid analysis
Procedure: as §1, §2, §3, §4, §5
as §5, with “100 nM,” for “1 μM,”
as §5, with “10” for “1”, “graph. Using a 50% growth inhibition rate as an index of the inhibitive effect of a drug, cells were classified into 4 types by grid analysis.” for “graph.”

[7] = test system: HS578T (MSL) cells; details: Homo sapiens, Hs-578T, 72 hours, read-out: inhibition rate (%) by wortmannin, classification by grid analysis
Procedure: as §1, §2, §3, §4, §5
as §5, with “100 nM,” for “1 μM,”
as §5, with “10” for “1”, “graph. Using a 50% growth inhibition rate as an index of the inhibitive effect of a drug, cells were classified into 4 types by grid analysis.” for “graph.”

[8] = test system: MDA-MB-231 (MSL) cells; details: Homo sapiens, 72 hours, read-out: inhibition rate (%) by wortmannin, classification by grid analysis
Procedure: as §1, §2, §3, §4, §5
as §5, with “100 nM,” for “1 μM,”
as §5, with “10” for “1”, “graph. Using a 50% growth inhibition rate as an index of the inhibitive effect of a drug, cells were classified into 4 types by grid analysis.” for “graph.”

[9] = test system: DU4475 (IM) cells; details: Homo sapiens, DU-4475, 72 hours, read-out: inhibition rate (%) by wortmannin, classification by grid analysis
Procedure: as §1, §2, §3, §4, §5
as §5, with “100 nM,” for “1 μM,”
as §5, with “10” for “1”, “graph. Using a 50% growth inhibition rate as an index of the inhibitive effect of a drug, cells were classified into 4 types by grid analysis.” for “graph.”

Question: With `COC[C@H]1OC(=O)c2coc3c2[C@@]1(C)C1=C(C3=O)[C@@H]2CCC(=O)[C@@]2(C)C[C@H]1OC(C)=O` [wortmannin, Wortmannin] as the molecule, how does the inhibition at 0.1 µM ([1]; MDA-MB-453, 100 nM, index 12.5% growth inhibition rate) read?
Answer: > 12.5%

Question: What about the inhibition at 1 µM ([1]; MDA-MB-453, 1 μM, index 25% growth inhibition rate) of the same molecule?
Answer: > 25%

Question: What about the inhibition at 10 µM ([1]; MDA-MB-453, 10 μM, index 50% growth inhibition rate) of the same molecule?
Answer: > 50%

Question: And the inhibition at 0.1 µM ([2]; HCC1187, 100 nM, index 12.5% growth inhibition rate)?
Answer: < 12.5%

Question: And the inhibition at 1 µM ([2]; HCC1187, 1 μM, index 25% growth inhibition rate)?
Answer: < 25%

Question: And the inhibition at 10 µM ([2]; HCC1187, 10 μM, index 50% growth inhibition rate)?
Answer: < 50%

Question: And the inhibition at 0.1 µM ([3]; MDA-MB-468, 100 nM, index 12.5% growth inhibition rate)?
Answer: > 12.5%

Question: What about the inhibition at 1 µM ([3]; MDA-MB-468, 1 μM, index 25% growth inhibition rate) of the same molecule?
Answer: > 25%

Question: What about the inhibition at 10 µM ([3]; MDA-MB-468, 10 μM, index 50% growth inhibition rate) of the same molecule?
Answer: > 50%

Question: And the inhibition at 0.1 µM ([4]; HCC1395, 100 nM, index 12.5% growth inhibition rate)?
Answer: < 12.5%

Question: And the inhibition at 1 µM ([4]; HCC1395, 1 μM, index 25% growth inhibition rate)?
Answer: < 25%

Question: And the inhibition at 10 µM ([4]; HCC1395, 10 μM, index 50% growth inhibition rate)?
Answer: < 50%

Question: What about the inhibition at 0.1 µM ([5]; HCC38, 100 nM, index 12.5% growth inhibition rate) of the same molecule?
Answer: < 12.5%

Question: What about the inhibition at 1 µM ([5]; HCC38, 1 μM, index 25% growth inhibition rate) of the same molecule?
Answer: < 25%

Question: And the inhibition at 10 µM ([5]; HCC38, 10 μM, index 50% growth inhibition rate)?
Answer: < 50%

Question: And the inhibition at 0.1 µM ([6]; HCC70, 100 nM, index 12.5% growth inhibition rate)?
Answer: > 12.5%

Question: What about the inhibition at 1 µM ([6]; HCC70, 1 μM, index 25% growth inhibition rate) of the same molecule?
Answer: > 25%

Question: What about the inhibition at 10 µM ([6]; HCC70, 10 μM, index 50% growth inhibition rate) of the same molecule?
Answer: > 50%

Question: What about the inhibition at 0.1 µM ([7]; 100 nM, index 12.5% growth inhibition rate) of the same molecule?
Answer: < 12.5%

Question: And the inhibition at 1 µM ([7]; 1 μM, index 25% growth inhibition rate)?
Answer: < 25%

Question: And the inhibition at 10 µM ([7]; 10 μM, index 50% growth inhibition rate)?
Answer: < 50%

Question: And the inhibition at 0.1 µM ([8]; MDA-MB-231, 100 nM, index 12.5% growth inhibition rate)?
Answer: < 12.5%

Question: What about the inhibition at 1 µM ([8]; MDA-MB-231, 1 μM, index 25% growth inhibition rate) of the same molecule?
Answer: < 25%

Question: And the inhibition at 10 µM ([8]; MDA-MB-231, 10 μM, index 50% growth inhibition rate)?
Answer: < 50%

Question: What about the inhibition at 0.1 µM ([9]; DU4475, 100 nM, index 12.5% growth inhibition rate) of the same molecule?
Answer: < 12.5%

Question: And the inhibition at 1 µM ([9]; DU4475, 1 μM, index 25% growth inhibition rate)?
Answer: < 25%

Question: And the inhibition at 10 µM ([9]; DU4475, 10 μM, index 50% growth inhibition rate)?
Answer: < 50%
